Four compounds from BindingDB's records for doi:10.1016/s0960-894x(02)00699-6 (Sapienza University of Rome, 2002) can be followed below.

The target in the test is Diamine oxidase [copper-containing] (Sus scrofa). The experiment in a line: Inhibitory activity against Swine kidney diamine oxidase (SKDAO).
For the compound `CC(=O)N1N=C(c2ccc(O)cc2O)CC1c1cccc(C)c1` (centres undefined) [1-[3-(2,4-Dihydroxy-phenyl)-5-m-tolyl-4,5-dihydro-pyrazol-1-yl]-ethanone], the Ki – broadly, the equilibrium dissociation constant of an inhibitor or competing ligand from its target – is 25 µM. Turning to `CC(=O)N1N=C(c2ccc(O)cc2O)CC1c1ccccc1C` (centres undefined) [1-[3-(2,4-Dihydroxy-phenyl)-5-o-tolyl-4,5-dihydro-pyrazol-1-yl]-ethanone], affinity was put at a Ki of 100 µM. The compound `CC(=O)N1N=C(c2ccccc2O)CC1c1cccc(C)c1` (centres undefined) [1-[3-(2-Hydroxy-phenyl)-5-m-tolyl-4,5-dihydro-pyrazol-1-yl]-ethanone] showed an inhibition constant Ki of 8 µM. On to `CC(=O)N1N=C(c2ccccc2O)CC1c1ccccc1C` (centres undefined) [1-[3-(2-Hydroxy-phenyl)-5-o-tolyl-4,5-dihydro-pyrazol-1-yl]-ethanone], for which the Ki turned out to be 5.5 µM.
